Assay results published in US6664277B1, “Prenylation inhibitors containing dimethylcyclobutane and methods of their synthesis and use” (PPD Discovery, Inc., priority 2002, dated 2003).

What follows are compounds tested against T1, GGPTase I (Rattus norvegicus, UniProt P53610+Q04631) (assay: GGPTase I inhibition assay ([3H]GGPP transfer to Ras-CVLL)). Settings: Table I; test compound 100 nM; mixtures of regioisomers and/or enantiomers unless indicated.
T1 construct: made in house; host or cells: Sf9 insect cells (baculovirus co-infection)
Format: biochemical
Description: GGPTase-I activity was determined by the method of Casey et al, Proc. Natl. Acad. Sci. USA, 1991, 88, 8631-8635. This method measures the transfer of isoprenoid from ^3H-geranylgeranyl diphosphate (GGPP) into a Ras protein with a C-terminal leucine-for-serine substitution (designated as Ras-CVLL).
Assays for the inhibition studies of GGPTase I were performed in a manner analogous to that described by Casey, et al., Proc. Natl. Acad. Sci. USA, 1991, 88, 8631-8635, with the following modifications. For those assays, the reaction mixtures contained the following components in 50 μl:0.25 μM [^3H]GGPP (sp. act. 8-10 Ci/mmol), 2.5 μM Ras-CVLL, 50 mM Tris-Cl, pH 7.7, 20 mM KCl, 5 mM MgCl2, 5 μM ZnCl2, 1 mM DTT, 0.5 mM Zwittergent 3-14 and the desired amount of the compound to be tested for inhibitory potential. After pre-equilibrating the assay mixture at 30° C. in the absence of the enzyme, the reaction was initiated by addition of the enzyme (75 ng). Following an about 10 minute incubation at about 30° C., the reactions were terminated by addition of about 0.5 ml of about 4% SDS. About 40 mg of bovine brain membranes was added to the samples to enhance recovery during precipitation. Product was precipitated by addition of about 0.5 ml of 30% TCA, allowed to stand at room temperature for about 15 minutes, and processed by filtration through glass-fiber filters as described previously (Reiss et al., Methods: Companion to Methods in Enzymology, 1991, 1, 241-245). Reactions were never allowed to proceed to more than 10% completion based on the limiting substrate. Assays for the inhibition studies of FPTase were performed analogous the GGPTase I inhibition studies, except [^3H]GGPP was replaced with 0.25 μM of [^3H]FPP (sp. act. 8-10 ci/mmol) and Ras-CVLL was replaced with 1 μM H-Ras.
Using the method described above, the GGPTase I inhibitory activities of some of the compounds of the present invention were evaluated. The concentration of the test compound used was 100 nM. Mixtures of regioisomers and/or enantiomers are used unless indicated otherwise (for example, the position of substituents on the dimethyl cyclobutane moiety).

T1 sequence (P53610 whole entry, one chain of several): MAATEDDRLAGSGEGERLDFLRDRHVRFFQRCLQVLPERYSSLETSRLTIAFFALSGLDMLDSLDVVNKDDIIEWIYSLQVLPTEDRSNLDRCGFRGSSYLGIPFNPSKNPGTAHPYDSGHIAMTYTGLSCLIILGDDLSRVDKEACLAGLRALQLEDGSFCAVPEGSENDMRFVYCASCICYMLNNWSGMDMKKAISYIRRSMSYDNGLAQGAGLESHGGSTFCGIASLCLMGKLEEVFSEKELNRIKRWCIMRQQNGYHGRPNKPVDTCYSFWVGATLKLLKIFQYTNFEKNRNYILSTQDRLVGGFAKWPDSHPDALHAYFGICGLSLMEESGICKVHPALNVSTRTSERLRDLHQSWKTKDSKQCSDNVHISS

Inhibition	SMILES
Yes	CN1CC[C@H](c2ccccc2)[C@H]1C(N)=O
Yes	CN1Cc2ccccc2C[C@H]1C(N)=O

Same assay, conditions: Table II; test compound 100 nM; mixtures of regioisomers and/or enantiomers unless indicated

Inhibition	SMILES
yes	CC1(C)[C@@H](CC(=O)NC(Cc2ccccc2)C(N)=O)C[C@@H]1c1cc(-c2cccnc2)nn1-c1ccc(Cl)c(Cl)c1 (stereo partly shown) [CONH2]
yes	CC1(C)[C@@H](CC(=O)NC(Cc2ccccc2)C(=O)O)C[C@@H]1c1cc(-c2cccnc2)nn1-c1ccc(Cl)c(Cl)c1 (stereo partly shown) [CO2H]
yes	COC(=O)C(Cc1ccccc1)NC(=O)C[C@H]1C[C@H](c2cc(-c3cccnc3)nn2-c2ccc(Cl)c(Cl)c2)C1(C)C (stereo partly shown) [CO2Me]
yes	CNC(=O)C(Cc1ccccc1)NC(=O)C[C@H]1C[C@H](c2cc(-c3cccnc3)nn2-c2ccc(Cl)c(Cl)c2)C1(C)C (stereo partly shown) [CONHMe]
yes	CC1(C)[C@@H](CC(=O)NC(CO)Cc2ccccc2)C[C@@H]1c1cc(-c2cccnc2)nn1-c1ccc(Cl)c(Cl)c1 (stereo partly shown) [CH2OH]
yes	CC1(C)[C@@H](CC(=O)NC(Cc2ccccc2)C(=O)OCc2ccccc2)C[C@@H]1c1cc(-c2cccnc2)nn1-c1ccc(Cl)c(Cl)c1 (stereo partly shown) [CO2Bn]
yes	CC1(C)[C@@H](CC(=O)NCCc2ccccc2)C[C@@H]1c1cc(-c2cccnc2)nn1-c1ccc(Cl)c(Cl)c1 [H]

Same assay, conditions: Table V; test compound 100 nM; mixtures of regioisomers and/or enantiomers unless indicated

Inhibition	SMILES
yes	CC1(C)[C@@H](CC(=O)NC(Cc2ccccc2)C(N)=O)C[C@@H]1c1cc(-c2cccnc2)nn1-c1ccc(Cl)c(Cl)c1 (stereo partly shown) [Bn]
yes	CC1(C)[C@@H](CC(=O)NC(C(N)=O)c2ccccc2)C[C@@H]1c1cc(-c2cccnc2)nn1-c1ccc(Cl)c(Cl)c1 (stereo partly shown) [Ph]
yes	CC1(C)[C@@H](CC(=O)NC(CO)Cc2ccccc2)C[C@@H]1c1cc(-c2cccnc2)nn1-c1ccc(Cl)c(Cl)c1 (stereo partly shown) [CH2OH]
yes	CC1(C)[C@@H](CC(=O)NCCc2ccccc2)C[C@@H]1c1cc(-c2cccnc2)nn1-c1ccc(Cl)c(Cl)c1 [H]

Same assay, conditions: Table VI; test compound 100 nM; mixtures of regioisomers and/or enantiomers unless indicated

Inhibition	SMILES
yes	CN(C(=O)C[C@H]1C[C@H](c2cc(-c3cccnc3)nn2-c2ccc(Cl)c(Cl)c2)C1(C)C)C(Cc1ccccc1)C(N)=O (stereo partly shown)
yes	CC1(C)[C@@H](CNC(=O)[C@@H](N)Cc2ccccc2)C[C@H]1c1cc(-c2cccnc2)nn1-c1ccc(Cl)c(Cl)c1
no	CC1(C)[C@@H](CCNC(Cc2ccccc2)C(N)=O)C[C@H]1c1cc(-c2cccnc2)nn1-c1ccc(Cl)c(Cl)c1 (stereo partly shown)
